Converted amounts (≈) assume the structure as drawn.
Columns and labels:
Salmonella strain 14028s = experiment: Minimum inhibitory concentration in EG minimal media; type: cell-based, Salmonella Typhimurium; settings: 18 h; for Growth in EG at concentration tested 1 μg/ml / Growth in EG at concentration tested 2 μg/ml / Growth in EG at concentration tested 4 μg/ml / Growth in EG at concentration tested 8 μg/ml / Growth in EG at concentration tested 16 μg/ml / Growth in EG at concentration tested 32 μg/ml: EG minimal media, 37° C.; for MIC: Salmonella, 14028S
Protocol: DksA controls transcription of metabolic and virulence genes, allowing bacteria to both grow in minimum media and cause disease. Inhibition of bacterial growth in EG minimum media was used as an easy and reliable proxy of the DksA-dependent regulation of metabolism.
In a non-limiting example, wild-type Salmonella strain 14028s was grown overnight (18.5 h), and then diluted in EG minimal media to a density of about 10^5 CFU/mL. […] Each test tube was incubated at 37° C. with shaking for 18 h and bacterial growth was evaluated. The MIC value was determined as the lowest concentration of compound that inhibited growth.

Compound solubility = type: physicochemical; settings: for Compound Solubility, 1 μM: solvent at 1 μM; for Compound Solubility, 10 μM: solvent at 10 μM; for Compound Solubility, 100 μM: solvent at 100 μM; for Compound Solubility, 1 mM: solvent at 1 mM; for Compound Solubility, 10 mM: solvent at 10 mM; for Compound Solubility, 16 mg/ml: solvent at 16 mg/ml
DksA = DksA (Salmonella typhimurium, UniProt P0A1G5); experiment: DksA-dependent livJ in vitro transcription; type: biochemical; settings: livJ promoter; for IVT: concentration showing activity
Protocol: To measure the potency of a compound in inhibition of DksA biological function, rpsMtranscripts in vitro was determined by non-radioactive in vitro transcription reactions with qPCR analysis with divergent compounds. Briefly, 5 nM pTIM-rpsMplasmid was mixed with […] of compounds in 10 μl reaction buffer (40 mM HEPES [pH 7.4], 2 mM MgCl2, 60 mM potassium glutamate, 0.05% NP-40, 200 μM ATP, 200 μM GTP, 200 μM CTP, 200 μM UTP, and 5 nM E. coli RNA polymerase holoenzyme (NEB, Ipswich, MA) with 5 μM DksA. The in vitro transcription was carried out at 37° C. for 10 min, and then terminated at 70° C. for 10 min. To remove template DNA after treated with DNaseI, DNA-free DNA Removal kit (ThermoFisher) was used according to manufacturer's direction. The resulting materials were used as templates to generate cDNA with 100 U MMLV reverse transcriptase (Promega), 0.45 μM gene specific primer, and 20 U RNase inhibitor (Promega). The amount of cDNA synthesized for 1 h at 42° C. was quantified by real-time PCR (qRT-PCR). The copy number of specific transcripts was calculated to the standard curve generated with known gene copy concentrations. The IC50 is the concentration at which the curve passes through the 50% inhibition level. Standard deviation was calculated from 3 independent experiments.
The compounds were initially tested at 0.1 μM and 1 μM using as a target the promoter of the livJ gene that encodes a transporter of branch-chain amino acids (Table 4).

Sequence of DksA (P0A1G5 whole entry): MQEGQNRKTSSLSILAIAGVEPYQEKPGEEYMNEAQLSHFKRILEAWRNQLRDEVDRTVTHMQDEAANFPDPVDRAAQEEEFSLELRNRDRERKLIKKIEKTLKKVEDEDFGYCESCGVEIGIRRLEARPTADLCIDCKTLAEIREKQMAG

SMILES	Growth in EG at concentration tested 1 μg/ml (Salmonella strain 14028s)	Growth in EG at concentration tested 2 μg/ml (Salmonella strain 14028s)	Growth in EG at concentration tested 4 μg/ml (Salmonella strain 14028s)	MIC (Salmonella strain 14028s)	Compound Solubility, 1 μM (Compound solubility)	Compound Solubility, 10 μM (Compound solubility)	Compound Solubility, 100 μM (Compound solubility)	Compound Solubility, 1 mM (Compound solubility)	Compound Solubility, 10 mM (Compound solubility)	Compound Solubility, 16 mg/ml (Compound solubility)	In vitro transcription assay result, 0.1 μM (DksA)	In vitro transcription assay result, 1 μM (DksA)	Growth in EG at concentration tested 8 μg/ml (Salmonella strain 14028s)	Growth in EG at concentration tested 16 μg/ml (Salmonella strain 14028s)	Growth in EG at concentration tested 32 μg/ml (Salmonella strain 14028s)	IVT (DksA)
COc1ccc(CNC(=O)c2nc[nH]n2)cc1 [Compound 4, N-(4-methoxybenzyl)-1H-1,2,4-triazole-3-carboxamide]	+	+	+	8 µg/mL (≈ 34.4 µM)	water	water	water	water	water	DMSO	no change	no change				
COc1ccc([C@@H](C)NC(=O)c2nc[nH]n2)cc1 [Compound 22, (R)-N-(1-(4-methoxyphenyl)ethyl)-1H-1,2,4-triazole-3-carboxamide]	+	+	+		water	water	water	water	water	DMSO	no induction	no induction	+	+	+	0.1 µM
COc1ccc(CNC(=O)c2nc[nH]n2)cc1C(F)(F)F [Compound 10, N-(4-methoxy-3-(trifluoromethyl)benzyl)-1H-1,2,4-triazole-3-carboxamide]	+	+	+		water	water	water	water	water	DMSO	no change	no induction	+	+	+	1 µM
COc1cccc(CNC(=O)c2nc[nH]n2)c1OC [Compound 3, N-(2,3-dimethoxybenzyl)-1H-1,2,4-triazole-3-carboxamide]	+	+	+	32 µg/mL (≈ 122 µM)	water	water	water	water	water	DMSO	no induction	no induction	+			0.1 µM
O=C(NCc1cccc(OC(F)(F)F)c1)c1nc[nH]n1 [Compound 9, N-(3-(trifluoromethoxy)benzyl)-1H-1,2,4-triazole-3-carboxamide]	+	+	+		water	water	water	water	DMSO	DMSO	no induction	Repression	+	+	+	0.1 µM
O=C(Nc1ccc(C(F)(F)F)cc1)c1nc[nH]n1 [Compound 11, N-(4-(trifluoromethyl)phenyl)-1H-1,2,4-triazole-3-carboxamide]	+	+	+		water	water	water	DMSO	DMSO	DMSO	good repression	good repression	+	+	+	0.1 µM
O=C(NCc1ccc(OC(F)(F)F)cc1)c1nc[nH]n1 [Compound 8, N-(4-(trifluoromethoxy)benzyl)-1H-1,2,4-triazole-3-carboxamide]	+	+	+		water	water	water	water	DMSO	DMSO	no induction	no induction	+	+	+	0.1 µM

From patent publication US12043601B2, “N-substituted-1H-1,2,4-triazole-3-carboxamides, analogues thereof, and methods of treatment using same” (THE REGENTS OF THE UNIVERSITY OF COLORADO, priority 2018, dated 2024)
